Experimental data: BindingDB's records for patent US10202378 (Genentech, 2019)

What was measured:
[1] = target: T1, Transcription initiation factor TFIID subunit 1 [1504-1635] (Homo sapiens, UniProt P21675); experiment: TR-FRET Binding Assay
T1 construct: 1504-1635
T1 sequence (P21675 whole entry): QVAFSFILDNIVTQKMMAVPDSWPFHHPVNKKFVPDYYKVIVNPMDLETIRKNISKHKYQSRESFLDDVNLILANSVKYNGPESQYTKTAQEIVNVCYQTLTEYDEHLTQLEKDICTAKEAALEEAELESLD
Method: After a 10 minute incubation at room temperature, biotin-ligand (0.04 uM final) was added. […] After forty minutes of equilibration at room temperature, the plates were read on an Envision instrument and IC50s calculated using a four parameter logistic model (XLFIT).

[2] = target: T2, Transcription initiation factor TFIID subunit 1 [1381-1497] (Homo sapiens, UniProt P21675); experiment: TAF1-BD1 TR-FRET Binding Assay
T2 construct: 1381-1497
T2 sequence (P21675 whole entry): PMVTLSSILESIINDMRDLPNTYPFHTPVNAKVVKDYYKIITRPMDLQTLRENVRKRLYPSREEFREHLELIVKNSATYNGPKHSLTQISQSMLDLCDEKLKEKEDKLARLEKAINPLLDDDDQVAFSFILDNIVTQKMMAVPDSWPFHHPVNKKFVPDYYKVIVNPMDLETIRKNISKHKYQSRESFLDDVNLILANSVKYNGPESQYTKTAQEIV
Method: Specifically, in a 384 well ProxiPlate, TAF1-BDI (0.08 uM final) in 50 mM HEPES (pH 7.5; final), 50 mM NaCl (final), 1 mM TCEP (final), 0.1 mg/mL BSA (final), and 0.069 mM Brij-35 (final) was added either in the presence of DMSO (final 0.2% DMSO) or compound dilution series in DMSO. After a 10 minute incubation at room temperature, biotin-ligand (0.08 uM final) was added. After 10 minutes incubation at room temperature, a mixture Eu-W1024 Anti-6×His antibody (Perkin Elmer ADO 110) and SureLight Streptavidin-Allophycocyanin (SA-APC, Perkin Elmer CR130-100) were added to final concentrations of 0.2 nM antibody and 0.05 uM SA-APC, respectively. After forty minutes of equilibration at room temperature, the plates were read on an Envision instrument and IC50s calculated using a four parameter logistic model (XLFIT).

Row | SMILES | IC50 [1] [nM] | IC50 [2] [nM]
1 | CCOC(=O)c1c(C)[nH]c2c(=O)n(C)cc(C#CC(O)(c3ccc(N(C)C)cc3)C(F)(F)F)c12 (stereo unspecified) [US10202378, Example 3] | 86.3 | 209
2 | CCOC(=O)c1c(C)[nH]c2c(=O)n(C)cc(C#CC(C)(O)C3(C)CC3)c12 (stereo unspecified) [US10202378, Example 4] | 72.7 | 352
3 | CCOC(=O)c1c(C)[nH]c2c(=O)n(C)cc(C#CC(C)(O)C3CCOC3)c12 (stereo unspecified) [US10202378, Example 7] | 181 | 607
4 | CCOC(=O)c1c(C)[nH]c2c(=O)n(C)cc(C#CC3(O)CCN(C(=O)CC)CC3)c12 [US10202378, Example 10] | 58.9 | 2230
5 | CCOC(=O)c1c(C)[nH]c2c(=O)n(C)cc(C#CC3(O)CCN(C(C)=O)CC3)c12 [US10202378, Example 11] | 80 | 1490
6 | CCOC(=O)c1c(C)[nH]c2c(=O)n(C)cc(C#CC(C)(O)CNc3ccccc3)c12 (stereo unspecified) [US10202378, Example 14] | 14800 | > 20000
7 | CCOC(=O)c1c(C)[nH]c2c(=O)n(C)cc(C#CC(C)(O)c3cccc(C)c3)c12 (stereo unspecified) [US10202378, Example 29] | 50.9 | 303
8 | CCOC(=O)c1c(C)[nH]c2c(=O)n(CC3CC3)cc(C#CC(C)(C)O)c12 [US10202378, Example 52] | 155 | 8660
9 | CCOC(=O)c1c(C)[nH]c2c(=O)n(C)cc(C#CC(C)(O)CC)c12 (stereo unspecified) [US10202378, Example 65] | 135 | 826
10 | CCOC(=O)c1c(C)[nH]c2c(=O)n(C)cc(C#CC(C)(O)CO)c12 (stereo unspecified) [US10202378, Example 66] | 100 | 798
11 | CCOC(=O)c1c(C)[nH]c2c(=O)n(C)cc(C#CC(C)(C)N)c12 [US10202378, Example 67] | 4110 | 5210
12 | CCOC(=O)c1c(C)[nH]c2c(=O)n(C)cc(C#CC(C)(O)c3nccs3)c12 (stereo unspecified) [US10202378, Example 68] | 122 | 521
13 | CCOC(=O)c1c(C)[nH]c2c(=O)n(C)cc(C#CC(C)(O)C3CC3)c12 (stereo unspecified) [US10202378, Example 77] | 49 | 243
14 | CCC(C)(C)OC(=O)c1c(C)[nH]c2c(=O)n(C)cc(C#CC(C)(O)C3CC3)c12 (stereo unspecified) [US10202378, Example 138] | 47.9 | 251
15 | CC(=O)NCCCOC(=O)c1c(C)[nH]c2c(=O)n(C)cc(C#CC(C)(O)C3CC3)c12 (stereo unspecified) [US10202378, Example 140] | 37.5 | 350
16 | Cc1cc([C@](C)(O)C#Cc2cn(C)c(=O)c3[nH]c(C)c(C(=O)OC(C)C(C)C)c23)no1 (stereo partly specified) [US10202378, Example 142] | 52.8 | 160
17 | CC(=O)N1CCC(COC(=O)c2c(C)[nH]c3c(=O)n(C)cc(C#CC(C)(C)O)c23)CC1 [US10202378, Example 144] | 20.1 | 267
18 | CCC(C)C(C)OC(=O)c1c(C)[nH]c2c(=O)n(C)cc(C#CC(C)(C)O)c12 (stereo unspecified) [US10202378, Example 145] | 53.3 | 272
19 | Cc1[nH]c2c(=O)n(C)cc(C#CC(C)(C)O)c2c1C(=O)OC(C)C(C)C (stereo unspecified) [US10202378, Example 152] | 53.6 | 235
20 | Cc1[nH]c2c(=O)n(C)cc(C#CC(C)(C)O)c2c1C(=O)OCC1CC1 [US10202378, Example 155] | 52.8 | 274
21 | Cc1[nH]c2c(=O)n(C)cc(C#CC(C)(O)c3ccccc3)c2c1C(=O)OC(C)C (stereo unspecified) [US10202378, Example 161] | 51.1 | 274
22 | CN(C)C(=O)c1c[nH]c2c(=O)n(C)cc(C#CC(C)(C)O)c12 [US10202378, Example 171] | 1730 | 4420
23 | Cc1[nH]c2c(=O)n(C)cc(C#CC(C)(O)C3CC3)c2c1-c1nnc(CO)o1 (stereo unspecified) [US10202378, Example 206] | 73.5 | 425
